Data reported in ChEMBL document CHEMBL5303573, “Mapping human microbiome drug metabolism by gut bacteria and their genes” (Nature, 2019).

Key:
[1] = The drug is tested on Bacteroides finegoldii strain: DSM17565 for biotransformation. The drug concentrations were measured before and after a 12-h incubation by liquid-chromatography-coupled mass spectrometry (LC–MS); details: 2 µM
[2] = The drug is tested on Blautia luti strain: DSM14534 for biotransformation. The drug concentrations were measured before and after a 12-h incubation by liquid-chromatography-coupled mass spectrometry (LC–MS); assay type: ADME; parameters: dose 2 uM, timepoint 0 vs 12 hours; details: 2 µM
[3] = bacteroides stercoris, 12 h, 2 µM
Description: The drug is tested on Bacteroides stercoris strain: ATCC43183 for biotransformation. The drug concentrations were measured before and after a 12-h incubation by liquid-chromatography-coupled mass spectrometry (LC–MS)

[4] = The drug is tested on Ruminococcus torques strain: ATCC27756 for biotransformation. The drug concentrations were measured before and after a 12-h incubation by liquid-chromatography-coupled mass spectrometry (LC–MS); assay type: ADME; parameters: dose 2 uM, timepoint 0 vs 12 hours; details: 2 µM
[5] = segatella copri, 12 h, 2 µM
Description: The drug is tested on Prevotella copri strain: DSM18205 for biotransformation. The drug concentrations were measured before and after a 12-h incubation by liquid-chromatography-coupled mass spectrometry (LC–MS)

[6] = enterocloster bolteae, 12 h, 2 µM
Description: The drug is tested on Clostridium bolteae strain: ATCCBAA-613 for biotransformation. The drug concentrations were measured before and after a 12-h incubation by liquid-chromatography-coupled mass spectrometry (LC–MS)

[7] = The drug is tested on Bacteroides ovatus strain: ATCC8483 for biotransformation. The drug concentrations were measured before and after a 12-h incubation by liquid-chromatography-coupled mass spectrometry (LC–MS); details: 2 µM
[8] = bacteroides eggerthii, 12 h, 2 µM
Description: The drug is tested on Bacteroides eggerthii strain: DSM20697 for biotransformation. The drug concentrations were measured before and after a 12-h incubation by liquid-chromatography-coupled mass spectrometry (LC–MS)

[9] = The drug is tested on Bacteroides pectinophilus strain: ATCC43243 for biotransformation. The drug concentrations were measured before and after a 12-h incubation by liquid-chromatography-coupled mass spectrometry (LC–MS); details: 2 µM
[10] = The drug is tested on Odoribacter splanchnicus strain: fecal isolate for biotransformation. The drug concentrations were measured before and after a 12-h incubation by liquid-chromatography-coupled mass spectrometry (LC–MS); details: 2 µM
[11] = The drug is tested on Bifidobacterium ruminantium strain: fecal isolate for biotransformation. The drug concentrations were measured before and after a 12-h incubation by liquid-chromatography-coupled mass spectrometry (LC–MS); details: 2 µM
[12] = The drug is tested on Clostridium asparagiforme strain: DSM15981 for biotransformation. The drug concentrations were measured before and after a 12-h incubation by liquid-chromatography-coupled mass spectrometry (LC–MS); assay type: ADME; parameters: dose 2 uM, timepoint 0 vs 12 hours; details: enterocloster asparagiformis, 2 µM
[13] = The drug is tested on Eubacterium hallii strain: DSM3353 for biotransformation. The drug concentrations were measured before and after a 12-h incubation by liquid-chromatography-coupled mass spectrometry (LC–MS); details: anaerobutyricum hallii, 2 µM
[14] = The drug is tested on Eubacterium rectale strain: ATCC33656 for biotransformation. The drug concentrations were measured before and after a 12-h incubation by liquid-chromatography-coupled mass spectrometry (LC–MS); details: agathobacter rectalis, 2 µM
[15] = The drug is tested on Bacteroides sp. WH2 strain: WH2 for biotransformation. The drug concentrations were measured before and after a 12-h incubation by liquid-chromatography-coupled mass spectrometry (LC–MS); details: bacteroides sp. wh2, 12 h, 2 µM
[16] = The drug is tested on Providencia stuartii strain: ATCC25827 for biotransformation. The drug concentrations were measured before and after a 12-h incubation by liquid-chromatography-coupled mass spectrometry (LC–MS); details: 2 µM
[17] = The drug is tested on Enterobacter cancerogenus strain: ATCC35316 for biotransformation. The drug concentrations were measured before and after a 12-h incubation by liquid-chromatography-coupled mass spectrometry (LC–MS); details: 2 µM
[18] = bacteroides thetaiotaomicron, 12 h, 2 µM
Description: The drug is tested on Bacteroides thetaiotaomicron strain: VPI-5482 for biotransformation. The drug concentrations were measured before and after a 12-h incubation by liquid-chromatography-coupled mass spectrometry (LC–MS)

[19] = The drug is tested on Bacteroides dorei strain: DSM17855 for biotransformation. The drug concentrations were measured before and after a 12-h incubation by liquid-chromatography-coupled mass spectrometry (LC–MS); details: phocaeicola dorei, 2 µM
[20] = The drug is tested on Bacteroides vulgatus strain: ATCC8482 for biotransformation. The drug concentrations were measured before and after a 12-h incubation by liquid-chromatography-coupled mass spectrometry (LC–MS); details: phocaeicola vulgatus, 2 µM

Row | SMILES | Bacterial Biotransformation [1] | Bacterial Biotransformation [2] | Bacterial Biotransformation [3] | Bacterial Biotransformation [4] | Bacterial Biotransformation [5] | Bacterial Biotransformation [6] | Bacterial Biotransformation [7] | Bacterial Biotransformation [8] | Bacterial Biotransformation [9] | Bacterial Biotransformation [10] | Bacterial Biotransformation [11] | Bacterial Biotransformation [12] | Bacterial Biotransformation [13] | Bacterial Biotransformation [14] | Bacterial Biotransformation [15] | Bacterial Biotransformation [16] | Bacterial Biotransformation [17] | Bacterial Biotransformation [18] | Bacterial Biotransformation [19] | Bacterial Biotransformation [20]
1 | O=C(O)CCC(=O)O.O=C(O[C@H]1CN2CCC1CC2)N1CCc2ccccc2[C@@H]1c1ccccc1 [SOLIFENACIN SUCCINATE] | Compound NOT metabolized | Compound NOT metabolized | Compound NOT metabolized | Compound NOT metabolized | Compound NOT metabolized | Compound NOT metabolized | Compound NOT metabolized | Compound NOT metabolized | Compound NOT metabolized | Compound NOT metabolized | Compound NOT metabolized | Compound NOT metabolized | Compound NOT metabolized | Compound NOT metabolized | Compound NOT metabolized | Compound NOT metabolized | Compound NOT metabolized | – | – | –
2 | CCc1cccc2c3c([nH]c12)C(CC)(CC(=O)O)OCC3 (stereo unspecified) [ETODOLAC] | Compound NOT metabolized | Compound NOT metabolized | Compound NOT metabolized | Compound NOT metabolized | Compound NOT metabolized | Compound NOT metabolized | Compound NOT metabolized | Compound NOT metabolized | Compound NOT metabolized | Compound metabolized | Compound NOT metabolized | Compound NOT metabolized | Compound NOT metabolized | – | Compound NOT metabolized | Compound NOT metabolized | Compound NOT metabolized | Compound metabolized | – | –
3 | O=C(CCCN1CCC2(CC1)C(=O)NCN2c1ccccc1)c1ccc(F)cc1 [SPIPERONE] | Compound NOT metabolized | Compound NOT metabolized | Compound NOT metabolized | Compound NOT metabolized | Compound NOT metabolized | Compound NOT metabolized | Compound NOT metabolized | Compound NOT metabolized | Compound NOT metabolized | – | Compound NOT metabolized | Compound NOT metabolized | Compound NOT metabolized | – | Compound NOT metabolized | – | Compound NOT metabolized | Compound NOT metabolized | Compound NOT metabolized | –
4 | Cc1cn([C@H]2C[C@H](N=[N+]=[N-])[C@@H](CO)O2)c(=O)[nH]c1=O [ZIDOVUDINE] | Compound NOT metabolized | Compound NOT metabolized | Compound metabolized | Compound NOT metabolized | Compound NOT metabolized | Compound NOT metabolized | Compound NOT metabolized | Compound metabolized | Compound NOT metabolized | Compound NOT metabolized | – | Compound NOT metabolized | Compound NOT metabolized | Compound NOT metabolized | Compound NOT metabolized | Compound NOT metabolized | Compound NOT metabolized | Compound NOT metabolized | Compound metabolized | Compound metabolized
5 | CC(C)OC(=O)C(C)(C)Oc1ccc(C(=O)c2ccc(Cl)cc2)cc1 [FENOFIBRATE] | Compound NOT metabolized | Compound metabolized | Compound NOT metabolized | – | Compound metabolized | Compound NOT metabolized | – | Compound metabolized | Compound metabolized | – | Compound metabolized | Compound metabolized | Compound NOT metabolized | Compound NOT metabolized | Compound NOT metabolized | Compound NOT metabolized | Compound NOT metabolized | – | – | –
6 | CC(C)NCC(O)c1ccc(NS(C)(=O)=O)cc1 (stereo unspecified) [SOTALOL] | Compound NOT metabolized | Compound NOT metabolized | Compound NOT metabolized | Compound NOT metabolized | Compound NOT metabolized | Compound NOT metabolized | Compound metabolized | Compound NOT metabolized | Compound NOT metabolized | Compound NOT metabolized | Compound NOT metabolized | Compound NOT metabolized | Compound NOT metabolized | – | Compound NOT metabolized | Compound NOT metabolized | Compound NOT metabolized | Compound metabolized | – | Compound NOT metabolized
7 | CCCc1nc2c(C)cc(-c3nc4ccccc4n3C)cc2n1Cc1ccc(-c2ccccc2C(=O)O)cc1 | Compound NOT metabolized | – | Compound metabolized | Compound NOT metabolized | – | – | Compound metabolized | – | – | Compound metabolized | Compound NOT metabolized | Compound NOT metabolized | Compound NOT metabolized | – | Compound metabolized | Compound NOT metabolized | Compound NOT metabolized | – | Compound metabolized | Compound metabolized
8 | CCOc1ccccc1OCCN[C@H](C)Cc1ccc(OC)c(S(N)(=O)=O)c1.Cl [TAMSULOSIN HYDROCHLORIDE] | Compound NOT metabolized | Compound NOT metabolized | Compound NOT metabolized | Compound NOT metabolized | Compound NOT metabolized | Compound NOT metabolized | Compound NOT metabolized | Compound NOT metabolized | Compound NOT metabolized | Compound NOT metabolized | Compound NOT metabolized | Compound NOT metabolized | Compound NOT metabolized | – | Compound NOT metabolized | Compound NOT metabolized | Compound NOT metabolized | Compound NOT metabolized | Compound NOT metabolized | Compound NOT metabolized
9 | N=C(N)NC(=O)Cc1c(Cl)cccc1Cl [GUANFACINE] | Compound NOT metabolized | Compound NOT metabolized | Compound NOT metabolized | Compound NOT metabolized | – | Compound NOT metabolized | Compound NOT metabolized | Compound NOT metabolized | Compound NOT metabolized | Compound NOT metabolized | Compound NOT metabolized | Compound NOT metabolized | Compound NOT metabolized | – | Compound NOT metabolized | Compound NOT metabolized | Compound NOT metabolized | Compound NOT metabolized | Compound NOT metabolized | Compound NOT metabolized
